# According to publication PMC5974779, “Prediction of Drug-Induced Hepatotoxicity Using Long-Term Stable Primary Hepatic 3D Spheroid Cultures in Chemically Defined Conditions” (Toxicological Sciences, 2018):
# System: not given
# Test: not given
# Conditions: ref DrugBank and Prescribers' Digital Reference database; cited from earlier work
row,Structure (SMILES),Extent of hepatic metabolism
1,Cc1c(C)c2c(c(C)c1O)CCC(C)(COc1ccc(CC3SC(=O)NC3=O)cc1)O2 (stereo not shown) [Troglitazone],Extensive
2,Cn1cnc([N+](=O)[O-])c1Sc1ncnc2nc[nH]c12 [Azathioprine],Extensive
3,C1CCC(C(CC2CCCCN2)C2CCCCC2)CC1 (stereo not shown) [Perhexiline],Extensive
4,CC(=O)N1CCN(c2ccc(OCC3COC(Cn4ccnc4)(c4ccc(Cl)cc4Cl)O3)cc2)CC1 (stereo not shown) [Ketoconazole],Extensive
5,CC(CN1c2ccccc2Sc2ccccc21)N(C)C (stereo not shown) [Promethazine],Extensive

# System: primary human hepatocytes (PHH) 3D spheroids
# Test: not given
# Conditions: not given
Structure (SMILES),Chemically defined spheroids (this study) 20x,hepatotoxicity evaluation in CD-spheroids
Cc1c(C)c2c(c(C)c1O)CCC(C)(COc1ccc(CC3SC(=O)NC3=O)cc1)O2 (stereo not shown) [Troglitazone],Positive,clearly detected
Cn1cnc([N+](=O)[O-])c1Sc1ncnc2nc[nH]c12 [Azathioprine],Positive,–
C1CCC(C(CC2CCCCN2)C2CCCCC2)CC1 (stereo not shown) [Perhexiline],Positive,–
CC(=O)N1CCN(c2ccc(OCC3COC(Cn4ccnc4)(c4ccc(Cl)cc4Cl)O3)cc2)CC1 (stereo not shown) [Ketoconazole],Positive,–
O=C(c1ccc(OCCN2CCCCC2)cc1)c1c(-c2ccc(O)cc2)sc2cc(O)ccc12 [Raloxifene],Negative,–
CC(CN1c2ccccc2Sc2ccccc21)N(C)C (stereo not shown) [Promethazine],Negative,–

# System: Gottingen minipig primary hepatocyte 3D spheroids
# Test: Animal hepatocyte spheroid hepatotoxicity (ATP viability, 14 days), minipig
# Format: cell-based
# Conditions: minipig hepatocyte spheroids, 1×, 5×, 20× human cmax, 14 days
row,Structure (SMILES),hepatotoxicity evaluation in spheroids
1,Cc1c(C)c2c(c(C)c1O)CCC(C)(COc1ccc(CC3SC(=O)NC3=O)cc1)O2 (stereo not shown) [Troglitazone],flagged as hepatotoxic
2,C1CCC(C(CC2CCCCN2)C2CCCCC2)CC1 (stereo not shown) [Perhexiline],flagged as hepatotoxic

# System: rhesus monkey primary hepatocyte 3D spheroids
# Test: Animal hepatocyte spheroid hepatotoxicity (ATP viability, 14 days), rhesus monkey
# Format: cell-based
# Conditions: rhesus monkey hepatocyte spheroids, 1×, 5×, 20× human cmax, 14 days
row,Structure (SMILES),hepatotoxicity evaluation in spheroids
1,Cc1c(C)c2c(c(C)c1O)CCC(C)(COc1ccc(CC3SC(=O)NC3=O)cc1)O2 (stereo not shown) [Troglitazone],flagged as hepatotoxic
2,C1CCC(C(CC2CCCCN2)C2CCCCC2)CC1 (stereo not shown) [Perhexiline],flagged as hepatotoxic
3,O=C(c1ccc(OCCN2CCCCC2)cc1)c1c(-c2ccc(O)cc2)sc2cc(O)ccc12 [Raloxifene],mild but significant toxicity

# System: PHH spheroids (hanging-drop)
# Test: not given
# Conditions: PHH hanging-drop spheroids, 100x Cmax; ref Proctor 2017; cited from earlier work
row,Structure (SMILES),Hanging-drop spheroids (Proctor 2017) 100x
1,Cc1c(C)c2c(c(C)c1O)CCC(C)(COc1ccc(CC3SC(=O)NC3=O)cc1)O2 (stereo not shown) [Troglitazone],Positive
2,Cn1cnc([N+](=O)[O-])c1Sc1ncnc2nc[nH]c12 [Azathioprine],Positive
3,C1CCC(C(CC2CCCCN2)C2CCCCC2)CC1 (stereo not shown) [Perhexiline],Positive
4,CC(=O)N1CCN(c2ccc(OCC3COC(Cn4ccnc4)(c4ccc(Cl)cc4Cl)O3)cc2)CC1 (stereo not shown) [Ketoconazole],Positive

# System: Wistar rat primary hepatocyte 3D spheroids
# Test: Animal hepatocyte spheroid hepatotoxicity (ATP viability, 14 days), Wistar rat
# Format: cell-based
# Conditions: Wistar rat hepatocyte spheroids, 1×, 5×, 20× human cmax, 14 days
row,Structure (SMILES),hepatotoxicity evaluation in spheroids
1,Cc1c(C)c2c(c(C)c1O)CCC(C)(COc1ccc(CC3SC(=O)NC3=O)cc1)O2 (stereo not shown) [Troglitazone],flagged as hepatotoxic
2,C1CCC(C(CC2CCCCN2)C2CCCCC2)CC1 (stereo not shown) [Perhexiline],flagged as hepatotoxic
3,CC(CN1c2ccccc2Sc2ccccc21)N(C)C (stereo not shown) [Promethazine],indicated toxicity

# System: not given
# Test: not given
# Conditions: therapeutic total cmax; ref PMID; cited from earlier work
row,Structure (SMILES),Cmax [µM]
1,Cc1c(C)c2c(c(C)c1O)CCC(C)(COc1ccc(CC3SC(=O)NC3=O)cc1)O2 (stereo not shown) [Troglitazone],6.08
2,Cn1cnc([N+](=O)[O-])c1Sc1ncnc2nc[nH]c12 [Azathioprine],7.21
3,O=C(c1ccc(OCCN2CCCCC2)cc1)c1c(-c2ccc(O)cc2)sc2cc(O)ccc12 [Raloxifene],0.001
4,CC(CN1c2ccccc2Sc2ccccc21)N(C)C (stereo not shown) [Promethazine],0.06

# System: CD1 mouse primary hepatocyte 3D spheroids
# Test: Animal hepatocyte spheroid hepatotoxicity (ATP viability, 14 days), CD1 mouse
# Format: cell-based
# Conditions: CD1 mouse hepatocyte spheroids, 1×, 5×, 20× human cmax, 14 days
row,Structure (SMILES),hepatotoxicity evaluation in spheroids
1,Cc1c(C)c2c(c(C)c1O)CCC(C)(COc1ccc(CC3SC(=O)NC3=O)cc1)O2 (stereo not shown) [Troglitazone],flagged as hepatotoxic
2,C1CCC(C(CC2CCCCN2)C2CCCCC2)CC1 (stereo not shown) [Perhexiline],flagged as hepatotoxic
3,O=C(c1ccc(OCCN2CCCCC2)cc1)c1c(-c2ccc(O)cc2)sc2cc(O)ccc12 [Raloxifene],incorrectly flagged as hepatotoxic

# System: PHH 2D sandwich cultures
# Test: not given
# Conditions: PHH 2D sandwich cultures, 100x Cmax; ref Xu 2008; cited from earlier work
row,Structure (SMILES),2Dsw (Xu 2008) 100x
1,Cc1c(C)c2c(c(C)c1O)CCC(C)(COc1ccc(CC3SC(=O)NC3=O)cc1)O2 (stereo not shown) [Troglitazone],Positive
2,Cn1cnc([N+](=O)[O-])c1Sc1ncnc2nc[nH]c12 [Azathioprine],Positive
3,C1CCC(C(CC2CCCCN2)C2CCCCC2)CC1 (stereo not shown) [Perhexiline],Positive
4,O=C(c1ccc(OCCN2CCCCC2)cc1)c1c(-c2ccc(O)cc2)sc2cc(O)ccc12 [Raloxifene],Negative
5,CC(CN1c2ccccc2Sc2ccccc21)N(C)C (stereo not shown) [Promethazine],Negative

# System: not listed separately
# Test: in vitro
# Conditions: human
row,Structure (SMILES),"viability at 14 days, 1 × cmax [%]"
1,Cn1cnc([N+](=O)[O-])c1Sc1ncnc2nc[nH]c12 [Azathioprine],< 10
2,CC(=O)N1CCN(c2ccc(OCC3COC(Cn4ccnc4)(c4ccc(Cl)cc4Cl)O3)cc2)CC1 (stereo not shown) [Ketoconazole],< 10

# System: clinical DILI in man
# Test: not given
# Conditions: DILI classification score; ref Guo et al. (2005); cited from earlier work
row,Structure (SMILES),Guo et al. (2005)
1,Cc1c(C)c2c(c(C)c1O)CCC(C)(COc1ccc(CC3SC(=O)NC3=O)cc1)O2 (stereo not shown) [Troglitazone],3
2,CC(CN1c2ccccc2Sc2ccccc21)N(C)C (stereo not shown) [Promethazine],3

# Same assay, conditions: DILI classification score; ref Suzuki et al. (2010); cited from earlier work
row,Structure (SMILES),Suzuki et al. (2010)
1,Cc1c(C)c2c(c(C)c1O)CCC(C)(COc1ccc(CC3SC(=O)NC3=O)cc1)O2 (stereo not shown) [Troglitazone],3
2,C1CCC(C(CC2CCCCN2)C2CCCCC2)CC1 (stereo not shown) [Perhexiline],3

# Same assay, conditions: FDA drug labeling DILI concern; ref Chen et al., 2011; cited from earlier work
row,Structure (SMILES),FDA (Severity)
1,Cc1c(C)c2c(c(C)c1O)CCC(C)(COc1ccc(CC3SC(=O)NC3=O)cc1)O2 (stereo not shown) [Troglitazone],most DILI concern

# Same assay, conditions: FDA drug labeling DILI score; ref Chen et al., 2011; cited from earlier work
row,Structure (SMILES),FDA (0-8)
1,Cc1c(C)c2c(c(C)c1O)CCC(C)(COc1ccc(CC3SC(=O)NC3=O)cc1)O2 (stereo not shown) [Troglitazone],Withdrawn
2,C1CCC(C(CC2CCCCN2)C2CCCCC2)CC1 (stereo not shown) [Perhexiline],Withdrawn
3,CC(CN1c2ccccc2Sc2ccccc21)N(C)C (stereo not shown) [Promethazine],5

# Same assay, conditions: clinical DILI classification in man (POS/NEG); cited from earlier work
row,Structure (SMILES),DILI in vivo
1,Cc1c(C)c2c(c(C)c1O)CCC(C)(COc1ccc(CC3SC(=O)NC3=O)cc1)O2 (stereo not shown) [Troglitazone],POS
2,C1CCC(C(CC2CCCCN2)C2CCCCC2)CC1 (stereo not shown) [Perhexiline],POS
3,CC(CN1c2ccccc2Sc2ccccc21)N(C)C (stereo not shown) [Promethazine],NEG

# Same assay, conditions: clinical DILI classification used in this study, Supplementary Table 2; ref Chen et al., 2011; Guo et al., 2005; O'Brien et al., 2006; Sakatis et al., 2012; Suzuki et al., 2010; Xu et al., 2008; cited from earlier work
row,Structure (SMILES),Classified as
1,Cc1c(C)c2c(c(C)c1O)CCC(C)(COc1ccc(CC3SC(=O)NC3=O)cc1)O2 (stereo not shown) [Troglitazone],POS
2,C1CCC(C(CC2CCCCN2)C2CCCCC2)CC1 (stereo not shown) [Perhexiline],POS
3,CC(CN1c2ccccc2Sc2ccccc21)N(C)C (stereo not shown) [Promethazine],NEG

# Same assay, conditions: clinical DILI classification, Supplementary Table 1; ref Chen et al., 2011; Guo et al., 2005; O'Brien et al., 2006; Sakatis et al., 2012; Suzuki et al., 2010; Xu et al., 2008; cited from earlier work
row,Structure (SMILES),DILI in vivo
1,Cc1c(C)c2c(c(C)c1O)CCC(C)(COc1ccc(CC3SC(=O)NC3=O)cc1)O2 (stereo not shown) [Troglitazone],POS
2,C1CCC(C(CC2CCCCN2)C2CCCCC2)CC1 (stereo not shown) [Perhexiline],POS
3,CC(CN1c2ccccc2Sc2ccccc21)N(C)C (stereo not shown) [Promethazine],NEG

# Same assay, conditions: clinical DILI classification; ref Xu et al. (2008); cited from earlier work
row,Structure (SMILES),Xu et al. (2008)
1,Cc1c(C)c2c(c(C)c1O)CCC(C)(COc1ccc(CC3SC(=O)NC3=O)cc1)O2 (stereo not shown) [Troglitazone],Positive
2,C1CCC(C(CC2CCCCN2)C2CCCCC2)CC1 (stereo not shown) [Perhexiline],Positive
3,CC(CN1c2ccccc2Sc2ccccc21)N(C)C (stereo not shown) [Promethazine],Negative

# Same assay, conditions: clinical hepatotoxicity classification; ref Sakatis et al. (2012); cited from earlier work
row,Structure (SMILES),Sakatis et al. (2012)
1,Cc1c(C)c2c(c(C)c1O)CCC(C)(COc1ccc(CC3SC(=O)NC3=O)cc1)O2 (stereo not shown) [Troglitazone],Hepatotoxic
2,C1CCC(C(CC2CCCCN2)C2CCCCC2)CC1 (stereo not shown) [Perhexiline],Hepatotoxic

# Same assay, conditions: in vivo; cited from earlier work
Structure (SMILES),Classified as,Clinical DILI class (panel heading of Figure 4),DILI in vivo,FDA (0-8),FDA (Severity),Guo et al. (2005),O'Brien et al. (2003),Sakatis et al. (2012),Suzuki et al. (2010),Type of DILI
Cn1cnc([N+](=O)[O-])c1Sc1ncnc2nc[nH]c12 [Azathioprine],POS,High DILI concern,POS,5,less DILI concern,3,Moderately,Hepatotoxic,1,Cholestatic injury or Mixed hepatitis
CC(=O)N1CCN(c2ccc(OCC3COC(Cn4ccnc4)(c4ccc(Cl)cc4Cl)O3)cc2)CC1 (stereo not shown) [Ketoconazole],POS,Severe DILI,POS,8,most DILI concern,3,Severely,Hepatotoxic,2,Hepatocellular injury or Cholestatic injury
O=C(c1ccc(OCCN2CCCCC2)cc1)c1c(-c2ccc(O)cc2)sc2cc(O)ccc12 [Raloxifene],NEG,DILI negative,NEG,0,–,–,–,non-hepatotixic,–,Non-hepatotoxic

# Same assay, conditions: in vivo; cited from earlier work
row,Structure (SMILES),Xu et al. (2008)
1,Cn1cnc([N+](=O)[O-])c1Sc1ncnc2nc[nH]c12 [Azathioprine],Positive
2,O=C(c1ccc(OCCN2CCCCC2)cc1)c1c(-c2ccc(O)cc2)sc2cc(O)ccc12 [Raloxifene],Negative

# Same assay, conditions: reported pattern of liver damage, Supplementary Table 2; ref literature; cited from earlier work
row,Structure (SMILES),Type of DILI
1,Cc1c(C)c2c(c(C)c1O)CCC(C)(COc1ccc(CC3SC(=O)NC3=O)cc1)O2 (stereo not shown) [Troglitazone],Hepatocellular injury or Cholestatic injury
2,C1CCC(C(CC2CCCCN2)C2CCCCC2)CC1 (stereo not shown) [Perhexiline],Hepatocellular injury
3,CC(CN1c2ccccc2Sc2ccccc21)N(C)C (stereo not shown) [Promethazine],Non-hepatotoxic

# Same assay, conditions: structural analogue pairs, Figure 5; ref Chen et al., 2011; Xu et al., 2008 and others; cited from earlier work
row,Structure (SMILES),Clinical DILI classification (Figure 5)
1,Cc1c(C)c2c(c(C)c1O)CCC(C)(COc1ccc(CC3SC(=O)NC3=O)cc1)O2 (stereo not shown) [Troglitazone],DILI positive

# System: C57BL/6 mouse primary hepatocyte 3D spheroids
# Test: Animal hepatocyte spheroid hepatotoxicity (ATP viability, 14 days), C57BL/6 (BL6) mouse
# Format: cell-based
# Conditions: C57BL/6 mouse hepatocyte spheroids, 1×, 5×, 20× human cmax, 14 days
row,Structure (SMILES),hepatotoxicity evaluation in spheroids
1,Cc1c(C)c2c(c(C)c1O)CCC(C)(COc1ccc(CC3SC(=O)NC3=O)cc1)O2 (stereo not shown) [Troglitazone],flagged as hepatotoxic
2,C1CCC(C(CC2CCCCN2)C2CCCCC2)CC1 (stereo not shown) [Perhexiline],flagged as hepatotoxic
